# Biological target: T1, PI3Kδ (Homo sapiens, UniProt O00329)
# T1 construct: Full length p110 subunits of PI3k α, β and δ, N-terminally labeled with polyHis tag; polyHis (N); made in house; host or cells: Sf9 insect cells (baculovirus)
# Test: In vitro enzyme assay of PI3Kδ (residual ATP bioluminescence)
# Format: biochemical
# Details: not given
# Protocol: Recombinant Expression of PI3Ks
# Full length p110 subunits of PI3k α, β and δ, N-terminally labeled with polyHis tag, were coexpressed with p85 with Baculo virus expression vectors in sf9 insect cells. P110/p85 heterodimers were purified by sequential Ni-NTA, Q-HP, Superdex-100 chromatography. Purified α, β and δ isozymes were stored at −20° C. in 20 mM Tris, pH 8, 0.2M NaCl, 50% glycerol, 5 mM DTT, 2 mM Na cholate. Truncated PI3Kγ, residues 114-1102, N-terminally labeled with polyHis tag, was expressed with Baculo virus in Hi5 insect cells. The γ isozyme was purified by sequential Ni-NTA, Superdex-200, Q-HP chromatography. The γ isozyme was stored frozen at −80° C. in NaH2PO4, pH 8, 0.2M NaCl, 1% ethylene glycol, 2 mM β-mercaptoethanol.
# Assays were performed in 25 μL with the above final concentrations of components in white polyproplyene plates (Costar 3355). Phospatidyl inositol phosphoacceptor, PtdIns(4,5)P2 P4508, was from Echelon Biosciences. The ATPase activity of the alpha and gamma isozymes was not greatly stimulated by PtdIns(4,5)P2 under these conditions and was therefore omitted from the assay of these isozymes. Test compounds were dissolved in dimethyl sulfoxide and diluted with three-fold serial dilutions. The compound in DMSO (1 μL) was added per test well, and the inhibition relative to reactions containing no compound, with and without enzyme was determined. After assay incubation at room temperature, the reaction was stopped and residual ATP determined by addition of an equal volume of a commercial ATP bioluminescence kit (Perkin Elmer EasyLite) according to the manufacturer's instructions, and detected using a AnalystGT luminometer.
# T1 sequence (O00329 whole entry): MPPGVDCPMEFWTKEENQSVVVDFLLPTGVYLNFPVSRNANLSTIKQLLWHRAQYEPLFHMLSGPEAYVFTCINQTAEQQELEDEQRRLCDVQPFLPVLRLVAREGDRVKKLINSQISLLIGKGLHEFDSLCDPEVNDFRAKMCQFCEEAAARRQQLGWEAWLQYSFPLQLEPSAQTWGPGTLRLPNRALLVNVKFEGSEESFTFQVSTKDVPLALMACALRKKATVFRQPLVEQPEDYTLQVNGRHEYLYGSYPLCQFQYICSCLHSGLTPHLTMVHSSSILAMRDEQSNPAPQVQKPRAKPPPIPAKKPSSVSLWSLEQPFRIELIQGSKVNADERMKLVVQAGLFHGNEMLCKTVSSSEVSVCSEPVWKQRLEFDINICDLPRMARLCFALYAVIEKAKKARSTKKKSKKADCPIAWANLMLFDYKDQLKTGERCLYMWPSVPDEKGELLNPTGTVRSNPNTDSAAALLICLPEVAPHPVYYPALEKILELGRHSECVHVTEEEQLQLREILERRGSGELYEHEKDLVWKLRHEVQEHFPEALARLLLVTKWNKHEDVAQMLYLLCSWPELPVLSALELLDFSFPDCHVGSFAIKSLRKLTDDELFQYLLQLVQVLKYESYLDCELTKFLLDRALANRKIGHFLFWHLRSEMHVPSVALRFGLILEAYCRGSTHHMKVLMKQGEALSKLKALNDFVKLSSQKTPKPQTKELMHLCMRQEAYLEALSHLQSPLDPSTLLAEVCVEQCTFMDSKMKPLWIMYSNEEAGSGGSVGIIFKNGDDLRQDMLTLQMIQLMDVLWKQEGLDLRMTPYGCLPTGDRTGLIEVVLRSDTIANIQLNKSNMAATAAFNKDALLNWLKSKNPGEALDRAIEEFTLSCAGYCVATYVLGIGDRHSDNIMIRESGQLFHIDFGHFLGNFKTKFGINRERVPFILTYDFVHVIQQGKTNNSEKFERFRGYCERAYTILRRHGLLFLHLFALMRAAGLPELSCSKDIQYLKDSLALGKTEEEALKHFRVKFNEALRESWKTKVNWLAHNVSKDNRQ
# T1 sequence (P27986 whole entry partner): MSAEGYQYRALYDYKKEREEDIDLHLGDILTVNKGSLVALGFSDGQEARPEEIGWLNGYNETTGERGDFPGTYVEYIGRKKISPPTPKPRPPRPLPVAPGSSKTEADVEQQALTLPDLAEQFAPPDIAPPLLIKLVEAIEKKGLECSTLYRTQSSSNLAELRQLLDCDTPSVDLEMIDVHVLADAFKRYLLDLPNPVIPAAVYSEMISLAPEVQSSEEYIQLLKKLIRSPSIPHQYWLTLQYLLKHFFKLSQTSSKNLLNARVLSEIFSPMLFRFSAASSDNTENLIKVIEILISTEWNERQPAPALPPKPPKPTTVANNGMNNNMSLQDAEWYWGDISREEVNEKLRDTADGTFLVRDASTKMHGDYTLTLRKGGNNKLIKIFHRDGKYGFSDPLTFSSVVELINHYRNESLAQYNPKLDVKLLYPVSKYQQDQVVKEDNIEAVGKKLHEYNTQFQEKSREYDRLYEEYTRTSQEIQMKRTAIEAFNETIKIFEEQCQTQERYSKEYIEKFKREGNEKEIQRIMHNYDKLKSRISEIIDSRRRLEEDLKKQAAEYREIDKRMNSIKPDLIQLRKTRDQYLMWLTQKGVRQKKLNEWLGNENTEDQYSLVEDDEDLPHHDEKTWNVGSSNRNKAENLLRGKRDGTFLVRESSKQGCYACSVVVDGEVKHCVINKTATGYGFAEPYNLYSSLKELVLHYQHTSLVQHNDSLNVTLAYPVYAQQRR
row,SMILES,IC50
1,"Cc1cccc2cc(Cn3nc(-c4cccc(O)c4)c4c(N)ncnc43)c(-c3ccccc3C(F)(F)F)nc12 [Example 8, 3-(4-Amino-1-((8-methyl-2-(2-(trifluoromethyl)phenyl)quinolin-3-yl)methyl)-1H-pyrazolo[3,4-d]pyrimidin-3-yl)phenol]",8 nM
2,"Nc1ncnc2c1c(-c1cccc(O)c1)nn2Cc1cc2cccc(Cl)c2nc1-c1ccccc1Cl [Example 10, 3-(4-Amino-1-((8-chloro-2-(2-chlorophenyl)quinolin-3-yl)methyl)-1H-pyrazolo[3,4-d]pyrimidin-3-yl)phenol]",14 nM
3,"Cc1cccc2cc(Cn3nc(-c4cn[nH]c4)c4c(N)ncnc43)c(-c3ccccc3C(F)(F)F)nc12 [Example 12, 1-((8-Methyl-2-(2-(trifluoromethyl)phenyl)quinolin-3-yl)methyl)-3-(1H-pyrazol-4-yl)-1H-pyrazolo[3,4-d]pyrimidin-4-amine]",8 nM
4,"Cc1cccc2cc(Cn3nc(C4CC4)c4c(N)ncnc43)c(-c3ccccc3C(F)(F)F)nc12 [Example 13, 3-Cyclopropyl-1-((8-methyl-2-(2-(trifluoromethyl)phenyl)quinolin-3-yl)methyl)-1H-pyrazolo[3,4-d]pyrimidin-4-amine]",149 nM
5,"Cc1cccc2cc(Cn3nc(C#CC(C)(C)O)c4c(N)ncnc43)c(-c3ccccc3C(F)(F)F)nc12 [Example 14, 4-(4-Amino-1-((8-methyl-2-(2-(trifluoromethyl)phenyl)quinolin-3-yl)methyl)-1H-pyrazolo[3,4-d]pyrimidin-3-yl)-2-methylbut-3-yn-2-ol]",116 nM
6,"Cc1cccc2nc(-c3ccccc3Cl)c(Cn3nc(-c4cn[nH]c4)c4c(N)ncnc43)nc12 [Example 17, 1-((3-(2-Chlorophenyl)-8-methylquinoxalin-2-yl)methyl)-3-(1H-pyrazol-4-yl)-1H-pyrazolo[3,4-d]pyrimidin-4-amine]",18 nM
7,"Cc1cccc2nc(Cn3nc(-c4cn[nH]c4)c4c(N)ncnc43)c(-c3ccccc3Cl)nc12 [Example 18, 1-((3-(2-Chlorophenyl)-5-methylquinoxalin-2-yl)methyl)-3-(1H-pyrazol-4-yl)-1H-pyrazolo[3,4-d]pyrimidin-4-amine]",30 nM
8,"COc1ccccc1-n1c(Cn2ccc(=O)c3c(N)ncnc32)nc2cccc(Cl)c2c1=O [Example 21, 4-Amino-8-((5-chloro-3-(2-methoxyphenyl)-4-oxo-3,4-dihydroquinazolin-2-yl)methyl)pyrido[2,3-d]pyrimidin-5(8H)-one]",13 nM
9,"Nc1ncnc2c1c(=O)ccn2Cc1cc2cccc(Cl)c2nc1-c1ccccc1Cl [Example 22, 4-Amino-8-((8-chloro-2-(2-chlorophenyl)quinolin-3-yl)methyl)pyrido[2,3-d]pyrimidin-5(8H)-one]",33 nM

# More lines, now with the values ahead:
row,IC50,SMILES
1,2130 nM,"Cc1cccc2cc(Cn3cnc4c(N)ncnc43)c(-c3ccccc3Cl)nc12 [Example 1, 9-((2-(2-Chlorophenyl)-8-methylquinolin-3-yl)methyl)-9H-purin-6-amine]"
2,58 nM,"Cc1cccc2cc(Cn3ccc(=O)c4c(N)ncnc43)c(-c3ccccc3Cl)nc12 [Example 2, 4-Amino-8-((2-(2-chlorophenyl)-8-methylquinolin-3-yl)methyl)pyrido[2,3-d]pyrimidin-5(8H)-one]"
3,6 nM,"Cc1ccccc1-c1nc2c(C)cccc2cc1Cn1nc(I)c2c(N)ncnc21 [Example 4, 3-Iodo-1-((8-methyl-2-o-tolylquinolin-3-yl)methyl)-1H-pyrazolo[3,4-d]pyrimidin-4-amine]"
4,14 nM,"Nc1ncnc2c1c(I)nn2Cc1cc2cccc(Cl)c2nc1-c1ccccc1Cl [Example 5, 1-((8-Chloro-2-(2-chlorophenyl)quinolin-3-yl)methyl)-3-iodo-1H-pyrazolo[3,4-d]pyrimidin-4-amine]"
5,7 nM,"Nc1ncnc2c1c(I)nn2Cc1cc2cccc(Cl)c2nc1-c1ccccc1C(F)(F)F [Example 6, 1-((8-Chloro-2-(2-(trifluoromethyl)phenyl)quinolin-3-yl)methyl)-3-iodo-1H-pyrazolo[3,4-d]pyrimidin-4-amine]"
6,4 nM,"Cc1cccc2cc(Cn3nc(I)c4c(N)ncnc43)c(-c3ccccc3F)nc12 [Example 7, 1-((2-(2-Fluorophenyl)-8-methylquinolin-3-yl)methyl)-3-iodo-1H-pyrazolo[3,4-d]pyrimidin-4-amine]"
7,137 nM,"Cc1cccc2cc(Cn3nc(C)c4c(N)ncnc43)c(-c3ccccc3Cl)nc12 [Example 11, 1-((2-(2-Chlorophenyl)-8-methylquinolin-3-yl)methyl)-3-methyl-1H-pyrazolo[3,4-d]pyrimidin-4-amine]"
8,38 nM,"Cc1cccc2nc(-c3ccccc3Cl)c(Cn3nc(I)c4c(N)ncnc43)nc12 [Example 15, 1-((3-(2-Chlorophenyl)-8-methylquinoxalin-2-yl)methyl)-3-iodo-1H-pyrazolo[3,4-d]pyrimidin-4-amine]"
9,21 nM,"Cc1cccc2nc(Cn3nc(I)c4c(N)ncnc43)c(-c3ccccc3Cl)nc12 [Example 16, 1-((3-(2-Chlorophenyl)-5-methylquinoxalin-2-yl)methyl)-3-iodo-1H-pyrazolo[3,4-d]pyrimidin-4-amine]"
10,1970 nM,"Cc1cccc2cc(Cn3ccc4c(N)ncnc43)c(-c3ccccc3Cl)nc12 [Example 19, 7-((2-(2-Chlorophenyl)-8-methylquinolin-3-yl)methyl)-7H-pyrrolo[2,3-d]pyrimidin-4-amine]"
11,20 nM,"Cc1cccc2cc(Cn3cc(Cl)c4c(N)ncnc43)c(-c3ccccc3Cl)nc12 [Example 20, 5-Chloro-7-((2-(2-chlorophenyl)-8-methylquinolin-3-yl)methyl)-7H-pyrrolo[2,3-d]pyrimidin-4-amine]"

# Tested on: human B cells
# Test: Human B cells proliferation stimulated by anti-IgM
# Format: cell-based
# Details: B-cell; anti-Human IgM + CD40L-LZ, 72 h, 3H thymidine
# Protocol: Human B Cells Proliferation Stimulate by Anti-IgM
# Isolate PBMCs from Leukopac or from human fresh blood. Isolate human B cells by using Miltenyi protocol and B cell isolation kit II.—human B cells were Purified by using AutoMacs.column.
# Activation of Human B Cells
# Use 96 well Flat bottom plate, plate 50000/well purified B cells in B cell proliferation medium (DMEM+5% FCS, 10 mM Hepes, 50 μM 2-mercaptoethanol); 150 μL medium contain 250 ng/mL CD40L-LZ recombinant protein (Amgen) and 2 μg/mL anti-Human IgM antibody (Jackson ImmunoReseach Lab.# 109-006-129), mixed with 50 μL B cell medium containing PI3K inhibitors and incubate 72 h at 37° C. incubator. After 72 h, pulse labeling B cells with 0.5-1 uCi/well ^3H thymidine for overnight ˜18 h, and harvest cell using TOM harvester.
row,SMILES,IC50
1,"Nc1ncnc2c1c(I)nn2Cc1nc2cccc(F)c2nc1-c1ccccc1Cl [1-((3-(2-Chlorophenyl)-5-fluoroquinoxalin-2-yl)methyl)-3-iodo-1H-pyrazolo[3,4-d]pyrimidin-4-amine]",554 nM
2,"Nc1ncnc2c1c(I)nn2Cc1nc2c(F)cccc2nc1-c1ccccc1Cl [1-((3-(2-Chlorophenyl)-8-fluoroquinoxalin-2-yl)methyl)-3-iodo-1H-pyrazolo[3,4-d]pyrimidin-4-amine]",818 nM
3,"Cc1cccc2nc(Cn3nc(-c4cnn(C)c4)c4c(N)ncnc43)c(-c3ccccc3Cl)nc12 [1-((3-(2-chlorophenyl)-5-methylquinoxalin-2-yl)methyl)-3-(1-methyl-1H-pyrazol-4-yl)-1H-pyrazolo[3,4-d]pyrimidin-4-amine]",37 nM
4,"Cc1cccc2nc(-c3ccccc3Cl)c(Cn3nc(-c4cnn(C)c4)c4c(N)ncnc43)nc12 [1-((3-(2-chlorophenyl)-8-methylquinoxalin-2-yl)methyl)-3-(1-methyl-1H-pyrazol-4-yl)-1H-pyrazolo[3,4-d]pyrimidin-4-amine]",19.8 nM
5,"Nc1ncnc2c1c(-c1cn[nH]c1)nn2Cc1cc2cccc(Cl)c2nc1-c1ccccc1F [1-((8-chloro-2-(2-fluorophenyl)-3-quinolinyl)methyl)-3-(1H-pyrazol-4-yl)-1H-pyrazolo[3,4-d]pyrimidin-4-amine]",18.2 nM
6,"Cc1cccc2nc(Cn3nc(I)c4c(N)ncnc43)c(-c3cccc(F)c3)c(=O)n12 [2-((4-amino-3-iodo-1H-pyrazolo[3,4-d]pyrimidin-1-yl)-methyl)-3-(3-fluorophenyl)-6-methyl-4H-pyrido[1,2-a]pyrimidin-4-one]",512 nM
7,"Cc1cccc2nc(Cn3nc(C#N)c4c(N)ncnc43)c(-c3ccccc3Cl)nc12 [4-Amino-1-((3-(2-chlorophenyl)-5-methylquinoxalin-2-yl)methyl)-1H-pyrazolo[3,4-d]pyrimidine-3-carbonitrile]",1.99 nM
8,"Cc1cccc2nc(-c3ccccc3Cl)c(Cn3nc(C#N)c4c(N)ncnc43)nc12 [4-Amino-1-((3-(2-chlorophenyl)-8-methylquinoxalin-2-yl)methyl)-1H-pyrazolo[3,4-d]pyrimidine-3-carbonitrile]",83.8 nM
9,"Cc1nn([C@@H](C)c2cc3cccc(Cl)c3nc2-c2cccc(F)c2)c2ncnc(N)c12 [Example 23, 1-((S)-1-(8-chloro-2-(3-fluorophenyl)quinolin-3-yl)ethyl)-3-methyl-1H-pyrazolo[3,4-d]pyrimidin-4-amine]",1.57 nM
10,"Nc1ncnc2c1c(I)nn2Cc1cc2c(Cl)cccc2nc1-c1ccccc1Cl [Example 25, 1-((5-Chloro-2-(2-chlorophenyl)quinolin-3-yl)methyl)-3-iodo-1H-pyrazolo-[3,4-d]pyrimidin-4-amine]",93.4 nM

# Source: patent US7919498B2, “Substituted pyrazolo[3,4-d]pyrimidines as PI3K inhibitors” (Amgen Inc., priority 2007, dated 2011)
